Source: US20230085307A1, “PYRIDAZINONE COMPOUND AND HERBICIDE” (NISSAN CHEMICAL CORPORATION, priority 2019, published 2023)

Assays:
[1] = test system: redroot pigweed; assay: Test Example 4: herbicidal effect by soil treatment (Table 19, symbol N); format: in vivo, redroot pigweed (Amaranthus retroflexus); details: 320 g/ha
How it was run: (§1)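 Herbicidal effect was rated 3 weeks after treatment, using the scoring criteria of an earlier test. The compound, formulated as an emulsion and diluted in water to a set herbicide amount, had been sprayed uniformly on soil over freshly sown seeds. Growth took place in a greenhouse at 25° C. to 30° C.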

[2] = test system: lambsquarters; assay: Test Example 5: herbicidal effect by foliage application, plastic box (Table 20, symbol O); format: in vivo, lambsquarters (Chenopodium album); details: foliage application, 320 g/ha, 3 weeks after application
How it was run: (§2)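 Foliar spray test: emulsion formulation diluted in water to a set application rate, sprayed onto 14-day-old plants raised in diluvial soil at 25° C to 30° C under glass. Both herbicidal effect and crop effect rated visually three weeks later.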

[3] = test system: blackgrass; assay: Test Example 5: herbicidal effect by foliage application, plastic box (Table 20, symbol J); format: in vivo, blackgrass (Alopecurus myosuroides); details: foliage application, 320 g/ha, 3 weeks after application
How it was run: as §2

[4] = test system: velvetleaf; assay: Test Example 4: herbicidal effect by soil treatment (Table 19, symbol M); format: in vivo, velvetleaf (Abutilon theophrasti); details: 320 g/ha
How it was run: as §1

[5] = test system: southern crabgrass; assay: Test Example 4: herbicidal effect by soil treatment (Table 19, symbol F); format: in vivo, southern crabgrass (Digitaria ciliaris); details: 320 g/ha
How it was run: as §1

[6] = test system: Chinese sprangletop; assay: Test Example 3: herbicidal effect by foliage application, Wagner pot (Table 18, symbol D); format: in vivo, chinese sprangletop (Leptochloa chinensis); details: 320 g/ha
How it was run: (§3)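 Plants were sown in alluvial soil held under 0.1–0.5 cm standing water and grown 14 days in a greenhouse at 25–30 °C. An emulsifiable formulation, water-diluted to the set dose, was then sprayed onto the foliage, and effects were scored three weeks later using previously defined criteria.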

[7] = test system: chickweed; assay: Test Example 4: herbicidal effect by soil treatment (Table 19, symbol P); format: in vivo, common chickweed (Stellaria media); details: 320 g/ha
How it was run: as §1

[8] = test system: lambsquarters; assay: Test Example 4: herbicidal effect by soil treatment (Table 19, symbol O); format: in vivo, lambsquarters (Chenopodium album); details: 320 g/ha
How it was run: as §1

[9] = test system: barnyard grass; assay: Test Example 4: herbicidal effect by soil treatment (Table 19, symbol H); format: in vivo, barnyard grass (Echinochloa crus-galli); details: 320 g/ha
How it was run: as §1

[10] = test system: late watergrass; assay: Test Example 2: herbicidal activity, application during weed generation under submerged conditions (Table 17, symbol A); format: in vivo, late watergrass (Echinochloa oryzicola); details: AAH 320 g/ha; application during weed generation, submerged conditions
How it was run: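 Wagner pot, alluvial soil, 4 cm flood; mixed sowing of all species; greenhouse 25° C.–30° C. Emulsifiable formulation, water-diluted to predetermined dose, applied to paddy water at 1–2 leaf stage. Effect rated at 3 wk using the earlier test's scoring criteria.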

[11] = test system: wild oat; assay: Test Example 5: herbicidal effect by foliage application, plastic box (Table 20, symbol I); format: in vivo, wild oat (Avena fatua); details: foliage application, 320 g/ha, 3 weeks after application
How it was run: as §2

[12] = test system: blackgrass; assay: Test Example 4: herbicidal effect by soil treatment (Table 19, symbol J); format: in vivo, blackgrass (Alopecurus myosuroides); details: 320 g/ha
How it was run: as §1

[13] = test system: barnyard grass; assay: Test Example 3: herbicidal effect by foliage application, Wagner pot (Table 18, symbol H); format: in vivo, barnyard grass (Echinochloa crus-galli); details: 320 g/ha
How it was run: as §3

[14] = test system: Italian ryegrass; assay: Test Example 5: herbicidal effect by foliage application, plastic box (Table 20, symbol K); format: in vivo, Italian ryegrass (Lolium multiflorum); details: foliage application, 320 g/ha, 3 weeks after application
How it was run: as §2

[15] = test system: windgrass; assay: Test Example 5: herbicidal effect by foliage application, plastic box (Table 20, symbol L); format: in vivo, windgrass (Apera spica-venti); details: foliage application, 320 g/ha, 3 weeks after application
How it was run: as §2

[16] = test system: green foxtail; assay: Test Example 4: herbicidal effect by soil treatment (Table 19, symbol G); format: in vivo, green foxtail (Setaria viridis); details: 320 g/ha
How it was run: as §1

[17] = test system: Japanese bulrush; assay: Test Example 1: herbicidal activity, application before weed generation under submerged conditions (Table 16, symbol B); format: in vivo, Japanese bulrush (Schoenoplectus juncoides); details: 320 g/ha applied herbicide
How it was run: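 Submerged Wagner pots (alluvial soil, 4 cm water) sown with weed seeds and planted with 2.5-leaf rice seedlings; emulsifiable concentrate diluted in water applied to water surface on sowing day. Held in greenhouse at 25-30 °C; injury scored 0-5 by herbicidal rate after three weeks.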

Row | SMILES | herbicidal effect rating, N: redroot pigweed [1] | effect on lambsquarters (O) [2] | effect on blackgrass (J) [3] | herbicidal effect rating, M: velvetleaf [4] | herbicidal effect rating, F: southern crabgrass [5] | herbicidal effect on D (Chinese sprangletop), rating 0-5 [6] | herbicidal effect rating, P: chickweed [7] | herbicidal effect rating, O: lambsquarters [8] | herbicidal effect rating, H: barnyard grass [9] | herbicidal effect rating, A: late watergrass [10] | effect on wild oat (I) [11] | herbicidal effect rating, J: blackgrass [12] | herbicidal effect on H (barnyard grass), rating 0-5 [13] | effect on Italian ryegrass (K) [14] | effect on windgrass (L) [15] | herbicidal effect rating, G: green foxtail [16] | Herbicidal effect on B: Japanese bulrush (grade 0-5) [17]
1 | CCCC(=O)Oc1c(C)nn(C)c(=O)c1-c1c(-c2ccc(OC)cc2)sc2ccc(F)cc12 [2-027] | 5 (Herbicidal rate of 90% or more (almost completely withered)) | 5 (Herbicidal rate of 90% or more (almost completely withered)) | 2 (Herbicidal rate of 20% or more and less than 40%) | 3 (Herbicidal rate of 40% or more and less than 70%) | 3 (Herbicidal rate of 40% or more and less than 70%) | 4 (Herbicidal rate of 70% or more and less than 90%) | 4 (Herbicidal rate of 70% or more and less than 90%) | 5 (Herbicidal rate of 90% or more (almost completely withered)) | 4 (Herbicidal rate of 70% or more and less than 90%) | 3 (Herbicidal rate of 40% or more and less than 70%) | 4 (Herbicidal rate of 70% or more and less than 90%) | 0 (Herbicidal rate of 5% or less (almost no effect)) | 5 (Herbicidal rate of 90% or more (almost completely withered)) | 5 (Herbicidal rate of 90% or more (almost completely withered)) | 0 (Herbicidal rate of 5% or less (almost no effect)) | 4 (Herbicidal rate of 70% or more and less than 90%) | 5 (Herbicidal rate of 90% or more (almost completely withered))
2 | CCOc1ccc(-c2sc3ccc(F)cc3c2-c2c(O)c(C)nn(C)c2=O)cc1 [2-030] | 4 (Herbicidal rate of 70% or more and less than 90%) | 4 (Herbicidal rate of 70% or more and less than 90%) | 0 (Herbicidal rate of 5% or less (almost no effect)) | 3 (Herbicidal rate of 40% or more and less than 70%) | 0 (Herbicidal rate of 5% or less (almost no effect)) | 3 (Herbicidal rate of 40% or more and less than 70%) | 3 (Herbicidal rate of 40% or more and less than 70%) | 5 (Herbicidal rate of 90% or more (almost completely withered)) | 0 (Herbicidal rate of 5% or less (almost no effect)) | 0 (Herbicidal rate of 5% or less (almost no effect)) | 0 (Herbicidal rate of 5% or less (almost no effect)) | 0 (Herbicidal rate of 5% or less (almost no effect)) | 5 (Herbicidal rate of 90% or more (almost completely withered)) | 3 (Herbicidal rate of 40% or more and less than 70%) | 3 (Herbicidal rate of 40% or more and less than 70%) | 0 (Herbicidal rate of 5% or less (almost no effect)) | 0 (Herbicidal rate of 5% or less (almost no effect))
3 | CCCC(=O)Oc1c(C)nn(C)c(=O)c1-c1c(-c2ccc(OCC)cc2)sc2ccc(F)cc12 [2-031] | 4 (Herbicidal rate of 70% or more and less than 90%) | 5 (Herbicidal rate of 90% or more (almost completely withered)) | 0 (Herbicidal rate of 5% or less (almost no effect)) | 3 (Herbicidal rate of 40% or more and less than 70%) | 1 (Herbicidal rate of 5% or more and less than 20%) | 4 (Herbicidal rate of 70% or more and less than 90%) | 1 (Herbicidal rate of 5% or more and less than 20%) | 4 (Herbicidal rate of 70% or more and less than 90%) | 3 (Herbicidal rate of 40% or more and less than 70%) | 4 (Herbicidal rate of 70% or more and less than 90%) | 0 (Herbicidal rate of 5% or less (almost no effect)) | 0 (Herbicidal rate of 5% or less (almost no effect)) | 5 (Herbicidal rate of 90% or more (almost completely withered)) | 0 (Herbicidal rate of 5% or less (almost no effect)) | 0 (Herbicidal rate of 5% or less (almost no effect)) | 2 (Herbicidal rate of 20% or more and less than 40%) | 4 (Herbicidal rate of 70% or more and less than 90%)
4 | CCCOc1ccc(-c2sc3ccc(F)cc3c2-c2c(OC(=O)CCC)c(C)nn(C)c2=O)cc1 [2-033] | 5 (Herbicidal rate of 90% or more (almost completely withered)) | 5 (Herbicidal rate of 90% or more (almost completely withered)) | 3 (Herbicidal rate of 40% or more and less than 70%) | 3 (Herbicidal rate of 40% or more and less than 70%) | 0 (Herbicidal rate of 5% or less (almost no effect)) | 1 (Herbicidal rate of 5% or more and less than 20%) | 4 (Herbicidal rate of 70% or more and less than 90%) | 5 (Herbicidal rate of 90% or more (almost completely withered)) | 0 (Herbicidal rate of 5% or less (almost no effect)) | 1 (Herbicidal rate of 5% or more and less than 20%) | 0 (Herbicidal rate of 5% or less (almost no effect)) | 0 (Herbicidal rate of 5% or less (almost no effect)) | 5 (Herbicidal rate of 90% or more (almost completely withered)) | 2 (Herbicidal rate of 20% or more and less than 40%) | 0 (Herbicidal rate of 5% or less (almost no effect)) | 0 (Herbicidal rate of 5% or less (almost no effect)) | 5 (Herbicidal rate of 90% or more (almost completely withered))
